Test results published in patent US20070274947A1, “Antisense Oligonucleotides Directed to Ribonucleotide Reductase R1 and Uses Thereof in the Treatment of Cancer” (priority 2003, published 2007).
Entries after “also recorded” stand apart in the source; their conditions may differ.

What was measured:
[1] = Acute intravenous toxicity study in rats (24-hour infusion); assay type: in vivo, Sprague-Dawley rats; conditions: rat
Description: The purpose of this study was to assess the adverse effects of SEQ ID NO:1 when administered as a single intravenous dose to Sprague-Dawley rats. […] Parameters assessed included mortality, clinical observations, body weight and food consumption assessment, clinical pathology and urinalysis measurements, and gross examination at necropsy.

[2] = Acute intravenous toxicity study in the monkey (24-hour infusion, escalating doses); assay type: in vivo, Cynomolgus monkeys
Procedure: The objective of this single, dose escalating study was to establish a maximum tolerated dose (MTD) for SEQ ID NO:1 and to assess the effect of administered SEQ ID NO:1 on the cardiac function of conscious Cynomolgus monkeys. […] There was a 3-day washout between doses. One female animal, administered vehicle only (PBS) in the same manner, was used as a control. Electrocardiogram (ECG) measurements were conducted on each animal (including control) prior to, during and after the end of each infusion interval. Clinical signs, mortality, body weight and food consumption measurements, hematology, coagulation and clinical chemistry parameter evaluations, were recorded and evaluated. In addition, blood samples were removed prior to and at the end of each infusion interval to measure complement (CH50 and Bb). Blood samples were also drawn at the end of each infusion for analysis of parent, SEQ ID NO:1.

[3] = test system: Hep G2 (liver); assay: Colony forming ability, Hep G2; assay type: cell-based, human; conditions: 0.2 μM antisense oligonucleotide/lipofectin, 4 hours
Procedure: (§1) The effect of SEQ ID NO:1 on the colony forming ability were evaluated in the following human tumor cell lines:
(§2) Tumor cells were washed in 5 ml of phosphate buffered saline, pH 7.2, prior to 0.2 μM antisense oligonucleotide/lipofectin treatment for 4 hours. The medium was removed and the cells were gently washed with 5 ml of growth medium. The cells were then cultured in growth medium for seven to ten days. Surviving colonies were visualized by methylene blue staining and colonies of 50 or more cells were scored (Choy et al., 1988 and Huang and Wright, 1994). Results are summarized from 4 to 8 trials for each tumor cell line.

[4] = test system: A2058 (melanoma); assay: Colony forming ability, A2058; assay type: cell-based, human; conditions: 0.2 μM antisense oligonucleotide/lipofectin, 4 hours
Procedure: as §1, §2

[5] = test system: R1 protein; assay: Immunoprecipitation of newly synthesized R1 protein in AsPC-1 cells; assay type: cell-based, human; conditions: 0.2 μM, 4 hours
Procedure: Immunoprecipitation was performed using a saturating amount of AD203 anti-R1 monoclonal antibody as previously described (Choy et al., 1988). Human tumor cells, AsPC-1 (pancreatic adenocarcinoma), were exposed for 4 hours to SEQ ID NO:1, SEQ ID NO:1 M is (a SEQ ID NO:1 sequence containing four base mismatch) or SEQ ID NO:1 Scr (a sequence with the same ratio of ACTG as the SEQ ID NO:1 sequence but scrambled). Cells were then washed and labeled with ^35S-methionine for 4-7 hours. R1 protein was specifically immunoprecipitated with R1 antibody from cell lysate, resolved on sodium dodecyl sulfate-polyacrylamide gels and analyzed by autoradiography.

[6] = test system: R1 protein; assay: Western blot of R1 protein in MDA-MB-231 cells; assay type: cell-based, human; conditions: SEQ ID NO:1 0.025-0.2 μM, controls 0.2 μM
Procedure: MDA-MB-231 human breast adenocarcinoma cells were treated with increasing concentrations (0.025-0.2 μM) of SEQ ID NO:1, 0.2 μM of a scrambled control analogue of SEQ ID NO:1 (SEQ ID NO:1 Scr) or a mismatched control analogue of SEQ ID NO:1 (SEQ ID NO:1 Mis) that contains four base changes. Cells were then washed and fresh media were added. Cells were harvested 8-18 hours later for protein extractions. Aliquots of cell extracts were heated at 100° C. for 5 minutes and then analyzed on sodium dodecyl sulfate-polyacrylamide gels (Choy et al., 1988). Proteins were then transferred to membranes. Membranes were blocked and then incubated with anti-R1 antibody for 1 hour at room temperature. Membranes were washed three times in cold TBS-Tween buffer followed by incubation for 30 minutes to 1 hour at room temperature in the presence of a second antibody (goat anti-rabbit immunoglobulin linked with horseradish peroxidase). Blots were washed and bound antibodies were detected by development of the […] reaction (Fan et al., 1996).

[7] = test system: SIHA human cervical cancer cells; assay: SIHA cervical tumor growth in SCID mice; assay type: in vivo
Procedure: SIHA human cervical cancer cells (1×10^7 cells in 100 μl of PBS) were subcutaneously injected into the right flank of 6-7 week old female SCID mice. After the size of tumor reached an approximate volume of 100 mm^3, 7 days post tumor cell injection, SEQ ID NO:1 was administered by bolus infusion into the tail vein every other day at 10 mg/kg. Control animals received saline alone for the same period. Treatments lasted for 16 days thereafter. Antitumor activities were estimated by the inhibition of tumor volume (FIG. 11A), which was measured with a caliper on five different occasions over 16-day period. Each point represents mean tumor volume calculated from 10 animals per experimental group.

[8] = test system: CB7 Friend retrovirus-induced mouse Erytheroleukemia cells; assay: Survival of SCID mice bearing mouse erythroleukemia (CB7); assay type: in vivo; conditions: 10 mg/kg i.v. every second day, stopped at day 71; one mouse died at day 30 and another at day 54; untreated died within 36 days
Procedure: In vivo studies were conducted to assess the therapeutic potential of SEQ ID NO:1 in the treatment of mouse Erythroleukemia. CB7 Friend retrovirus-induced mouse Erytheroleukemia cells (5×10^6) collected from subconfluent logarithmically growing cultures were injected i.v. via the tail vein of each animal and disease was allowed to establish for 2 days. SEQ ID NO:1 in normal saline was administered by tail vein injections every second day at a dose of 10 mg/kg. Control animals received saline alone, without oligonucleotide. Treatment with SEQ ID NO:1 was stopped at day 71. Antitumor effects of SEQ ID NO:1 treatment were assessed by the examination of survival of mice (FIG. 19). All mice died as a consequence of tumor progression within 36 days when left untreated. All SEQ ID NO:1 treated animals, on the other hand, survived beyond day 71 except one mouse which died at day 30 and another at day 54.

[9] = cynomolgus monkey, in vivo

Substance: 5′-CTCTAGCGTCTTAAAGCCGA-3′ (CTCTAGCGTCTTAAAGCCGA; chemistry not given here) [SEQ ID NO:1]
- toxicological effects ([1]; 24-hour continuous i.v. infusion, 40 mg/kg/day): toxicological effects were not observed
- test article related effects ([1]; 24-hour continuous i.v. infusion, 60, 80 and 90 mg/kg): some test article related effects were found
- complement values ([2]; 80 mg/kg, one animal (female)): outside the normal range (higher Bb and lower CH50)
- ECG recordings and blood pressure ([2]; 10-80 mg/kg): no treatment-related effects
- deaths, clinical signs, body weight, food consumption ([2]; 24-hour infusions of 10, 20, 40 and 80 mg/kg): no deaths, clinical signs, body weight changes, or effects on food consumption
- plasma concentrations at the end of infusion ([2]; escalating doses 10-80 mg/kg): increased with escalating dose levels
- activated partial thromboplastin times ([2]; following the last dose (Day 14), all values within normal ranges): apparent increasing trend
- complement Bb and CH50 values ([2]; up to 40 mg/kg): within the reference range
- inhibition in colony forming ability [3]: greater than 60%
- inhibition in colony forming ability [4]: greater than 60%
- R1 protein expression (synthesis) [5]: specifically decreases R1 protein expression; also recorded: dramatically decreased; also recorded: specifically inhibit the expression of R1 protein
- R1 protein expression [6]: specifically decreases R1 protein expression in a dose-dependent manner; also recorded: decreased R1 protein expression in a dose-dependent manner
- inhibition of tumor volume ([7]; 10 mg/kg i.v. every other day, 16 days, vs saline): strong inhibitory effects
- weight of excised tumors ([7]; end of treatments): strong antitumor effect
- survival of mice [8]: > 71 days
- elimination t1/2 [9]: 2.2 to 2.5 h
- plasma Cl [9]: 0.762 to 1.945 mL/min/kg
- time to Css [9]: consistently achieved at the first or second blood collection timepoint
